Test results published in patent US11590093B2, “Kit, composition, and combination therapy for fragile X syndrome” (priority 2018, dated 2023).
Entries after “also recorded” stand apart in the source; their conditions may differ.

Legend:
Settings in all cases: osmotic minipumps s.c. 15 days, sulindac 5 mg/kg, metoprolol 10 mg/kg, ibudilast 3 mg/kg, sertraline 1 mg/kg, quercetin 1 mg/kg (100 mg/kg in combination), cannabidiol 5 mg/kg
Fmr1 KO2 mice [1] = tested on: Fmr1 KO2 mice
Source text: (§1) The Fmr1 KO2 it is both, protein and mRNA null. In this study we used Fmr1 KO2 and wild-type (WT) littermates generated on a C57BL/6J background and repeatedly backcrossed onto a C57BL/6J background for more than eight generations.
(§2) There were four treatment groups per compound/compound combination in the study with 10 male mice used per treatment group (all at 8 weeks of age): Group 1: Fmr1 KO2 mice treated with vehicle (Fmr1 KO2-V), Group 2: wild-type littermate mice treated with vehicle (WT-V), Group 3: Fmr1 KO2 mice treated with compounds (Fmr1 KO—[name of drug(s)]) and Group 4: wild-type littermate mice treated with compounds (WT—[name of drug(s)]).
The dependent measure used in contextual fear conditioning was a freezing response following a pairing of an unconditioned stimulus (foot shock), with a conditioned stimulus, a particular context. Freezing is a species-specific response to fear, which has been defined as “absence of movement except for respiration”. This may last for seconds to minutes depending on the strength of the aversive stimulus, the number of presentations, and the degree of learning achieved by the subject. Testing involved placing the animal in a novel environment (dark chamber), providing an aversive stimulus (a 1-sec electric shock, 0.2 mA, to the paws), and then removing it.

Fmr1 KO2 mice [2] = assay: Social interaction, three-chambered sociability task; format: in vivo
Experimental: In the three-chambered sociability task, a subject mouse was evaluated for its exploration of a novel social stimulus (novel mouse). The three-chambered social approach task monitors direct social approach behaviors when a subject mouse is presented with the choice of spending time with either a novel mouse or an empty cup. Sociability is defined as the subject mouse spending more time in the chamber containing the mouse than in the empty chamber. Preference for social novelty is defined as spending more time in the chamber with the novel mouse. The apparatus is a rectangular three-chamber box, where each chamber measures 20 cm (length)×40.5 cm (width)×22 cm (height). Dividing walls are made from clear perplex, with small openings (10 cm width×5 cm height) that allow access into each chamber. The three chamber task was lit from below (10 lux). The mice were allowed to freely explore the three-chamber apparatus over three 10 min trials. During the trial one wire cup was placed upside down in one of the side chambers and a novel mouse was placed under another wire cup in the other side chamber (novel mouse stimulus), leaving the middle chamber empty. The location of the novel mouse across trials was counterbalanced to minimize any potential confound due to a preference for chamber location. The time spent exploring the novel mice was scored as exploration ratio.

Fmr1 KO2 mice [3] = assay: Open field (hyperactivity, locomotor activity); format: in vivo
Source text: as §1, §2
The open-field apparatus was used to test hyperactivity. The apparatus was a gray PVC-enclosed arena […] divided into a 10×10 cm grid. Mice were brought to the experimental room 5-20 min before testing. A mouse was placed into a corner square facing the corner and observed for 3 min. The number of squares entered by the whole body (locomotor activity) were counted. The movement of the mouse around the field was recorded with a video tracking device for 3 min (version NT4.0, Viewpoint).

Fmr1 KO2 mice [4] = tested on: Fmr1 KO2 mice; remark: listed apart in the source
Source text: as §1, §2
The test was performed in individual cages. Normal bedding covered the floor to a depth of 0.5 cm. Each cage was supplied with a “Nestlet,” a 5 cm square of pressed cotton batting (Ancare). Mice were placed individually into the nesting cages 1 hr. before the dark phase, and the results were assessed the next morning. Nest building was scored on a 5 point scale.
Score 1: The Nestlet was largely untouched (>90% intact).
Score 2: The Nestlet was partially torn up (50-90% remaining intact).
Score 3: The Nestlet was mostly shredded but often there was no identifiable nest site: <50% of the Nestlet […]

Compound	Contextual fear conditioning (learning and memory) (Fmr1 KO2 mice [1])	Sociability (exploration of novel mouse) (Fmr1 KO2 mice [2])	Open field: hyperactivity (Fmr1 KO2 mice [3])	Nesting behavior (Fmr1 KO2 mice [4])	Sociability (exploration of novel mouse) (Fmr1 KO2 mice [2]; listed as Sulindac)
CN[C@H]1CC[C@@H](c2ccc(Cl)c(Cl)c2)c2ccccc21 [sertraline]	neither sulindac nor sertraline alone rescues sociability or fear conditioning	neither sulindac nor sertraline alone rescues sociability or fear conditioning	–	–	–
COCCc1ccc(OCC(O)CNC(C)C)cc1.O=C(O)C(O)C(O)C(=O)O (racemic) [metoprolol, (±) 1-(Isopropylamino)-3-[p-(β-methoxyethyl)phenoxy]-2-propanol (+)-tartrate salt]	fails to improve the learning deficits	No significant difference was found in sociability; also recorded: partially rescue nesting behavior and sociability	normalized Fmr1 KO2 mice hyperactivity; also recorded: normalize hyperactivity	partially rescued; also recorded: partially rescue nesting behavior and sociability	–
O=c1c(O)c(-c2ccc(O)c(O)c2)oc2cc(O)cc(O)c12 [quercetin]	neither sulindac nor quercetin alone fully rescues fear conditioning	–	–	–	–
CC1=C(CC(=O)O)c2cc(F)ccc2/C1=C\c1ccc([S+](C)[O-])cc1 (stereo not drawn) [sulindac, (Z)-5-fluoro-2-methyl-1-[[p-(methylsulfinyl)phenyl]methylene]-1H-indene-3-acetic acid]	ameliorates the Fmr1 KO deficit in learning and memory; also recorded: partially rescuing contextual fear conditioning and sociability; also recorded: neither sulindac nor sertraline alone rescues sociability or fear conditioning; also recorded: neither sulindac nor quercetin alone fully rescues fear conditioning	partially rescuing contextual fear conditioning and sociability; also recorded: neither sulindac nor ibudilast alone rescues sociability; also recorded: neither sulindac nor sertraline alone rescues sociability or fear conditioning	normalizes hyperactivity; also recorded: fully rescuing open field and nesting behavior	normalization in nesting behavior; also recorded: fully rescuing open field and nesting behavior	partially improved such impairment
